Source: patent US8044089B2, “3-3-di-substituted-oxindoles as inhibitors of translation initiation” (President and Fellows of Harvard College, priority 2004, dated 2011)
Like-named read-outs stand apart in the source and are kept apart here.

Legend:
[1] = system: intracellular Ca^2+ stores; experiment: Ca2+ release from intracellular stores (FURA-2AM loaded cells); type: cell-based; parameters: key to Ca^2+ (Ca^2+ release from intracellular stores): a “+” denotes release; a “+/−” denotes inconclusive
Excerpt: As a non-limiting example, compounds 1272 and 1273 (set forth in Table 1) were synthesized starting from 3-bromoaniline, which upon condensation with hydroxylamine and chloral hydrate followed by concentrated sulfuric acid yielded an inseparable regioisomeric mixture of 4- and 6-bromo isatins. The addition of the two phenyl groups to the three position of the oxindole allowed easy chromatographic separation of the 4- and 6-bromo-3,3-diphenyloxindoles 1272 and 1273. Table 1 sets forth biological data for diaryloxindole compounds including, but not limited to 1272 and 1273. For Tables 1-14, Ca^2+ refers to Ca^2+ release from intracellular stores where a “+” denotes release and a “+/−” denotes inconclusive; eIF2α-P refers to phosphorylation of eIF2α measured by Western blot; SRB refers to the inhibitory concentration to reduce cell growth by 50% (IC50) for growth inhibition of A549 lung cancer cells; and n.d. is not determined.
Without intending to be bound by theory, the mechanism of action of translation initiation inhibitors is set forth in FIG. 1, and includes the depletion (complete or partial depletion) of intracellular calcium (Ca^2+) stores and phosphorylation of eIF2α. Compounds synthesized using the approaches described herein were screened for their ability to partially deplete intracellular Ca^2+ stores using FURA-2AM loaded cells (Benzaquen et al. (1995) Nature Medicine, 1:534, incorporated herein by reference in its entirety for all purposes). A limited subset of compounds were further screened for their ability to deplete endoplasmic reticulum (ER) Ca^2+. The Ca^2+ content of the ER was monitored using ER-targeted, Ca^2+ sensitive, recombinant proteins. These recombinant proteins emitted light by fluorescent resonance energy transfer (FRET) as a function of the Ca^2+ content of the medium. Such assays are previously described (Miyawaki, A.; Mizuno, H.; Llopis, J.; Tsien, R. Y.; Jalink, K. Cameleons as cytosolic and intra-organellar calcium probes, Oxford University Press: Oxford, London, 2001; pp 3-16, incorporated herein by reference in its entirety for all purposes). Compounds that depleted Ca^2+ were further evaluated for their ability to phosphorylate eIF2α. eIF2α phosphorylation was measured by Western blot analysis using the phospho-specific anti-eIF2α antibody, as previously described (Aktas et al. (1998) Proc. Natl. Acad. Sci. USA, 95:8280, incorporated herein by reference in its entirety for all purposes).

A549 lung cancer cells = experiment: SRB growth inhibition of A549 lung cancer cells; type: cell-based, human; conditions: A549 lung cancer cells, unit inferred, read-out: SRB (IC50 for growth inhibition of A549 lung cancer cells)
Excerpt: As a non-limiting example, compounds 1272 and 1273 (set forth in Table 1) were synthesized starting from 3-bromoaniline, which upon condensation with hydroxylamine and chloral hydrate followed by concentrated sulfuric acid yielded an inseparable regioisomeric mixture of 4- and 6-bromo isatins. The addition of the two phenyl groups to the three position of the oxindole allowed easy chromatographic separation of the 4- and 6-bromo-3,3-diphenyloxindoles 1272 and 1273. Table 1 sets forth biological data for diaryloxindole compounds including, but not limited to 1272 and 1273. For Tables 1-14, Ca^2+ refers to Ca^2+ release from intracellular stores where a “+” denotes release and a “+/−” denotes inconclusive; eIF2α-P refers to phosphorylation of eIF2α measured by Western blot; SRB refers to the inhibitory concentration to reduce cell growth by 50% (IC50) for growth inhibition of A549 lung cancer cells; and n.d. is not determined. […]

CN1C(=O)C(c2ccccc2)(c2ccccc2)c2ccccc21 [Compound 1301]
Ca^2+ (Ca^2+ release from intracellular stores) [1]: +

CC(C)(C)c1cccc(C2(n3ccnc3)C(=O)Nc3ccccc32)c1 (stereo not drawn) [Compound 1318]
Ca^2+ (Ca^2+ release from intracellular stores) [1]: + | IC50 (A549 lung cancer cells): 2 µM

CC(C)(C)c1ccc(O)c(C2(c3ccccc3)C(=O)Nc3c(Br)cccc32)c1 (stereo not drawn) [Compound 1196]
Ca^2+ (Ca^2+ release from intracellular stores) [1]: + | IC50 (A549 lung cancer cells): 3 µM

CC(C)(C)c1ccc2c(c1)C1(c3ccccc3)C(=O)N(C/C=C\CO2)c2ccccc21 (stereo not drawn) [Compound 1291]
IC50 (A549 lung cancer cells; Homo sapiens): > 20 µM

O=C1Nc2ccccc2C1(c1cccc(F)c1)n1ccnc1 (stereo not drawn) [Compound 1316]
IC50 (A549 lung cancer cells): > 20 µM

O=C1Nc2ccccc2C1(c1ccccc1)c1cc(O)ccc1O (stereo not drawn) [Compound 1201]
Ca^2+ (Ca^2+ release from intracellular stores) [1]: +

O=C1Nc2ccccc2C1(c1ccc(O)cc1)c1ccc(O)cc1 [Compound 1259]
IC50 (A549 lung cancer cells): > 20 µM

CC(C)(C)c1ccc(O)c(C2(c3ccccc3)C(=O)N(CC(=O)O)c3ccccc32)c1 (stereo not drawn) [Compound 1339]
IC50 (A549 lung cancer cells): > 20 µM

CC(C)(C)c1cccc(C2(c3ccc(O)cc3)C(=O)Nc3ccccc32)c1 (stereo not drawn) [Compound 1232]
Ca^2+ (Ca^2+ release from intracellular stores) [1]: + | IC50 (A549 lung cancer cells): 4 µM

CC(=O)Nc1ccc(S(=O)(=O)N2C(=O)C(c3ccccc3)(c3ccccc3)c3ccccc32)cc1 [Compound 1308]
IC50 (A549 lung cancer cells): 11 µM

COc1ccc(C2(c3ccccc3)C(=O)Nc3ccccc32)c(CC(=O)O)c1 (stereo not drawn) [Compound 1327]
IC50 (A549 lung cancer cells): > 20 µM

CC(C)(C)c1ccc(O)c(C2(c3ccccc3)C(=O)Nc3cc(Cl)ccc32)c1 (stereo not drawn) [Compound 1429]
Ca^2+ (Ca^2+ release from intracellular stores) [1]: + | IC50 (A549 lung cancer cells): 3 µM

O=C1Nc2ccccc2C1(c1cccc(Cl)c1)n1ccnc1 (stereo not drawn) [Compound 1314]
Ca^2+ (Ca^2+ release from intracellular stores) [1]: + | IC50 (A549 lung cancer cells): > 20 µM

[N-]=[N+]=NCCCCOc1ccc(O)c(C2(c3ccccc3)C(=O)Nc3ccccc32)c1 (stereo not drawn) [Compound 1219]
Ca^2+ (Ca^2+ release from intracellular stores) [1]: + | IC50 (A549 lung cancer cells): 5 µM

CC(C)(C)c1ccc(S(=O)(=O)Nc2ccc(O)c(C3(c4ccccc4)C(=O)Nc4ccccc43)c2)cc1 (stereo not drawn) [Compound 1638]
Ca^2+ (Ca^2+ release from intracellular stores) [1]: + | IC50 (A549 lung cancer cells): 3 µM

CC(=O)Nc1cc(O)c(C)cc1C1(c2ccccc2)C(=O)Nc2ccccc21 (stereo not drawn) [Compound 1639]
IC50 (A549 lung cancer cells): > 20 µM

COC(=O)C(N)Cc1ccc(O)c(C2(c3ccccc3)C(=O)Nc3ccccc32)c1 (stereo not drawn) [Compound 1171]
Ca^2+ (Ca^2+ release from intracellular stores) [1]: +

O=C1N(c2ccccc2)c2ccccc2C1(c1ccccc1)c1ccccc1 [Compound 1300]
IC50 (A549 lung cancer cells): 8 µM

CC(C)(C)c1ccc(O)c(C2(c3ccccc3)C(=O)Nc3ccc(NS(=O)(=O)c4cccc5ccccc45)cc32)c1 (stereo not drawn) [Compound 1238]
Ca^2+ (Ca^2+ release from intracellular stores) [1]: +/− | IC50 (A549 lung cancer cells): 3 µM

CC(C)(C)c1ccc(O)c(C2(c3ccccc3)C(=O)Nc3ccc(F)cc32)c1 (stereo not drawn) [Compound 1312]
Ca^2+ (Ca^2+ release from intracellular stores) [1]: + | IC50 (A549 lung cancer cells): 4 µM

CN(C)c1ccc(C2(c3ccc(O)cc3)C(=O)Nc3ccccc32)cc1 (stereo not drawn) [Compound 1262]
Ca^2+ (Ca^2+ release from intracellular stores) [1]: +/− | IC50 (A549 lung cancer cells): 10 µM

C=CCCCOc1ccc(O)c(C2(c3ccccc3)C(=O)Nc3ccccc32)c1 (stereo not drawn) [Compound 1202]
Ca^2+ (Ca^2+ release from intracellular stores) [1]: + | IC50 (A549 lung cancer cells): 6 µM

CCCc1ccc(C2(c3ccccc3)C(=O)Nc3ccccc32)cc1 (stereo not drawn) [Compound 1296]
Ca^2+ (Ca^2+ release from intracellular stores) [1]: + | IC50 (A549 lung cancer cells): 11 µM

Cc1cc(C2(c3ccccc3)C(=O)Nc3ccccc32)c(NS(C)(=O)=O)cc1O (stereo not drawn) [Compound 1427]
Ca^2+ (Ca^2+ release from intracellular stores) [1]: + | IC50 (A549 lung cancer cells): 14 µM

O=C1Nc2ccc(OC(F)(F)F)cc2C1(c1ccccc1)c1ccccc1 [Compound 1263]
Ca^2+ (Ca^2+ release from intracellular stores) [1]: + | IC50 (A549 lung cancer cells): 8 µM

CCCCOc1ccc(S(=O)(=O)N2C(=O)C(c3ccccc3)(c3ccccc3)c3ccccc32)cc1 [Compound 1306]
IC50 (A549 lung cancer cells): > 20 µM

C=CCOCN1C(=O)C(c2ccccc2)(c2cc(C(C)(C)C)ccc2O)c2ccccc21 (stereo not drawn) [Compound 1227]
Ca^2+ (Ca^2+ release from intracellular stores) [1]: + | IC50 (A549 lung cancer cells): 3 µM

O=C1Nc2ccccc2C1(c1ccccc1)n1ccnc1 (stereo not drawn) [Compound 1315]
IC50 (A549 lung cancer cells): > 20 µM

O=C1Nc2ccccc2C1(c1ccc(O)cc1)c1ccc(-c2ccccc2)cc1 (stereo not drawn) [Compound 1261]
Ca^2+ (Ca^2+ release from intracellular stores) [1]: + | IC50 (A549 lung cancer cells): 10 µM

CC(C)(C)c1ccc(S(=O)(=O)Nc2ccc(C3(c4ccccc4)C(=O)Nc4ccccc43)c(O)c2)cc1 (stereo not drawn) [Compound 1624]
Ca^2+ (Ca^2+ release from intracellular stores) [1]: + | IC50 (A549 lung cancer cells): < 1 µM

O=C1NC(=O)C(Cc2ccc(O)c(C3(c4ccccc4)C(=O)Nc4ccccc43)c2)S1 (stereo not drawn) [Compound 1220]
Ca^2+ (Ca^2+ release from intracellular stores) [1]: +/− | IC50 (A549 lung cancer cells): 16 µM

CC(C)(C)c1ccc(OS(=O)(=O)CC23CCC(CC2=O)C3(C)C)c(C2(c3ccccc3)C(=O)Nc3ccccc32)c1 (stereo not drawn) [Compound 1319]
Ca^2+ (Ca^2+ release from intracellular stores) [1]: + | IC50 (A549 lung cancer cells): 2 µM

O=C1Nc2ccccc2C1(c1ccc(O)cc1)c1ccc(Oc2ccccc2)cc1 (stereo not drawn) [Compound 1260]
Ca^2+ (Ca^2+ release from intracellular stores) [1]: + | IC50 (A549 lung cancer cells): 12 µM

O=C1Nc2ccccc2C1(c1ccccc1)c1cc(C(F)(F)F)ccc1O (stereo not drawn) [Compound 1243]
IC50 (A549 lung cancer cells): > 20 µM

Cc1cc2c(c(C3(c4ccccc4)C(=O)Nc4ccccc43)c1)NCC2 (stereo not drawn) [Compound 1313]
Ca^2+ (Ca^2+ release from intracellular stores) [1]: + | IC50 (A549 lung cancer cells; Homo sapiens): > 20 µM

Cc1cccc(C2(n3ccnc3)C(=O)Nc3ccccc32)c1 (stereo not drawn) [Compound 1317]
IC50 (A549 lung cancer cells): > 20 µM

C=CCN1C(=O)C(c2ccccc2)(c2ccccc2)c2ccccc21 [Compound 1303]
Ca^2+ (Ca^2+ release from intracellular stores) [1]: +/− | IC50 (A549 lung cancer cells): 15 µM

O=C1Nc2ccccc2C1(c1ccccc1)c1cc(OCCCCBr)ccc1O (stereo not drawn) [Compound 1203]
Ca^2+ (Ca^2+ release from intracellular stores) [1]: + | IC50 (A549 lung cancer cells): 8 µM

Cc1cc(C2(c3ccccc3)C(=O)Nc3c(C(=O)O)cccc32)c(NS(=O)(=O)c2ccc(C(C)(C)C)cc2)cc1O (stereo not drawn) [Compound 1431]
IC50 (A549 lung cancer cells): > 20 µM

CC(C)(C)c1ccc(O)c(C2(c3ccccc3)C(=O)N(c3ccccc3)c3ccccc32)c1 (stereo not drawn) [Compound 1255]
IC50 (A549 lung cancer cells): 4 µM

CC(C)(C)c1ccc(S(=O)(=O)N2C(=O)C(c3ccccc3)(c3ccccc3)c3ccccc32)cc1 [Compound 1311]
IC50 (A549 lung cancer cells): 11 µM

O=C1N(Cc2ccc(Cl)cc2)c2ccccc2C1(c1ccccc1)c1ccccc1 [Compound 1302]
IC50 (A549 lung cancer cells): 14 µM

O=C1N(S(=O)(=O)c2ccc(Oc3ccccc3)cc2)c2ccccc2C1(c1ccccc1)c1ccccc1 [Compound 1307]
IC50 (A549 lung cancer cells): > 20 µM

Cc1cc(O)c(NS(=O)(=O)c2ccc(C(C)(C)C)cc2)cc1C1(c2ccccc2)C(=O)Nc2ccccc21 (stereo not drawn) [Compound 1648]
Ca^2+ (Ca^2+ release from intracellular stores) [1]: +

CC(C)(C)c1ccc(OCC#N)c(C2(c3ccccc3)C(=O)N(CC#N)c3ccccc32)c1 (stereo not drawn) [Compound 1320]
IC50 (A549 lung cancer cells; Homo sapiens): 4 µM

O=C1N(CO)c2ccccc2C1(c1ccccc1)c1ccccc1 [Compound 1304]
IC50 (A549 lung cancer cells): 10 µM
